Patent US20240069027A1, “USE OF NITROGEN-DOPED CARBON FLUORESCENT QUANTUM DOT IN PREPARATION OF PRODUCT FOR DETECTING AEROBIC GLYCOLYSIS” (SHANGHAI NINTH PEOPLE'S HOSPITAL, SHANGHAI JIAOTONG …, priority 2020, published 2024)

Test system: A375 cells
Test: Aerobic glycolysis (NAD+) fluorescence of PFK15-treated A375 cells read out with C3N quantum dots
Type: cell-based
Settings: PFK15 20 nM, 12 h; then C3N quantum dots 1 μg/mL 2 h at 25° C.; excitation 400 nm
Procedure: A375 cells were selected as the samples to be tested with a cell concentration of 10^5.
[…] (PFK15, 20 nM) was added to the cell samples to be tested and incubated for 12 h. C3N quantum dots (with a diameter of 1 nm, a concentration of 1 μg/mL, a solvent of saline) were selected as the aerobic glycolysis detection product. 1 μL of C3N quantum dots were added to the samples to be tested and incubated for 2 h at 25° C. The fluorescence of the samples was observed by a fluorescence microscope (with an excitation wavelength of 400 nm). It can be seen that the fluorescence of the A375 cells with PFK15 treatment (PFK15 can block the aerobic glycolysis metabolism and reduce the NAD^+ concentration in cytoplasm) was decreased by 43% compared with that of the group without PFK15 treatment (results were shown in FIG. 5).

SMILES: O=C(C=Cc1ccc2ccccc2n1)c1ccncc1 [PFK15, 1-(4-pyridinyl)-3-(2-quinolinyl)-2-propen-1-one]
- decrease of fluorescence of A375 cells compared with group without PFK15 treatment: 43%
